Test results from ChEMBL document CHEMBL1921683, “Radiosynthesis of three [11C]ureido-substituted benzenesulfonamides as PET probes for carbonic anhydrase IX in tumors” (Bioorg Med Chem Lett, 2011).

Assay: Chemical stability of the compound assessed as decomposition of the compound
Assay type: physicochemical

Stability: Unstable
Compound: N#Cc1ccccc1N[11C](=O)Nc1ccc(S(N)(=O)=O)cc1
